Measured values published in US11053241B2, “TYK2 inhibitors and uses thereof” (Nimbus Lakshmi, Inc., priority 2018, dated 2021).

Assays:
[1] = target: TYK2 kinase domain (JH1) (Homo sapiens (Human), UniProt P29597); assay: TYK2 Radioactive Kinase Assay; format: biochemical; settings: compound at 10 μM; ATP at 10 μM; 120 min at room temp
Description: (§1) Peptide substrate, [KKSRGDYMTMQIG], (20 μM) was prepared in reaction buffer (20 mM Hepes pH 7.5, 10 mM MgCl2, 1 mM EGTA, 0.02% Brij35, 0.02 mg/mL BSA, 0.1 mM […], 2 mM DTT, 1% DMSO). TYK2 (Invitrogen) kinase was added, followed by compounds in DMSO. ^33PATP was added to initiate the reaction in ATP at 10 μM. The kinase reaction was incubated for 120 min at room temp and reactions were spotted onto P81 ion exchange paper (Whatman #3698-915), and then washed extensively in 0.75% phosphoric acid, prior to reading the radioactivity counts. For JAK2 (Invitrogen) kinase assay the peptide substrate poly[Glu:Tyr](4:1), 0.2 mg/ml was used, in the reaction carried out the same as for TYK2.
(§2) The TYK2 and JAK2 radioactive kinase assay measures the percent inhibition at the TYK2 kinase domain (JH1) and the percent inhibition at the JAK2 kinase domain (JH1). Results of the assay are expressed as percent inhibition at 10 μM.

[2] = target: human TYK2 (JH2domain-pseudokinase) (Homo sapiens (Human), UniProt P29597); assay: TYK2 JH2 Domain Binding Assay (KINOMEscan); settings: 11-point 3-fold dilution, top concentration 30,000 nM, duplicate
Description: Binding constants for compounds of the present invention against the JH2 domain were determined by the following protocol for a KINOMEscan® assay (DiscoveRx). A fusion protein of a partial length construct of human TYK2 (JH2domain-pseudokinase) (amino acids G556 to D888 based on reference sequence NP_003322.3) and the DNA binding domain of NFkB was expressed in transiently transfected HEK293 cells. From these HEK 293 cells, extracts were prepared in M-PER extraction buffer (Pierce) in the presence of Protease Inhibitor Cocktail Complete (Roche) and Phosphatase Inhibitor Cocktail Set II (Merck) per manufacturers' instructions. The TYK2(JH2domain-pseudokinase) fusion protein was labeled with a chimeric double-stranded DNA tag containing the NFkB binding site (5′-GGGAATTCCC-3′) fused to an amplicon for qPCR readout, which was added directly to the expression extract (the final concentration of DNA-tag in the binding reaction is 0.1 nM).
Streptavidin-coated magnetic beads (Dynal M280) were treated with a biotinylated small molecule ligand for 30 minutes at room temperature to generate affinity resins for the binding assays. The liganded beads were blocked with excess biotin and washed with blocking buffer (SeaBlock (Pierce), 1% BSA, 0.05% Tween 20, 1 mM DTT) to remove unbound ligand and to reduce nonspecific binding.
The binding reaction was assembled by combining 16 μl of DNA-tagged kinase extract, 3.8 μl liganded affinity beads, and 0.18 μl test compound (PBS/0.05% Tween 20/10 mM DTT/0.1% BSA/2 μg/ml sonicated salmon sperm DNA). Extracts were used directly in binding assays without any enzyme purification steps at a ≥10,000-fold overall stock dilution (final DNA-tagged enzyme concentration <0.1 nM). Extracts were loaded with DNA-tag and diluted into the binding reaction in a two step process. First extracts were diluted 1:100 in 1× binding buffer (PBS/0.05% Tween 20/10 mM DTT/0.1% BSA/2 μg/ml sonicated salmon sperm DNA) containing 10 nM DNA-tag. This dilution was allowed to equilibrate at room temperature for 15 minutes and then subsequently diluted 1:100 in 1× binding buffer. All reactions were performed in polypropylene 384-well plates. Each was a final volume of 0.02 mL. Assays were incubated with shaking for 1 hour at room temperature. Then the beads were pelleted and washed with wash buffer (1×PBS, 0.05% Tween 20) to remove displaced kinase and test compound. The washed based were re-suspended in elution buffer (1×PBS, 0.05% Tween 20, 0.5 μM non-biotinylated affinity ligand) and incubated at room temperature with shaking for 30 minutes. The kinase concentration in the eluates was measured by qPCR. qPCR reactions were assembled by adding 2.5 μL of kinase eluate to 7.5 μL of qPCR master mix containing 0.15 μM amplicon primers and 0.15 μM amplicon probe. The qPCR protocol consisted of a 10 minute hot start at 95° C., followed by 35 cycles of 95° C. for 15 seconds, 60° C. for 1 minute.
Test compounds were prepared as 111× stocks in 100% DMSO. Kd values were determined using an 11-point 3-fold compound dilution series with three DMSO control points. All compounds for Kd measurements are distributed by acoustic transfer (non-contact dispensing) in 100% DMSO. The compounds were then diluted directly into the assays such that the final concentration of DMSO was 0.9%. The Kd values were determined using a compound top concentration of 30,000 nM. Kd measurements were performed in duplicate.
Binding constants (Kds) were calculated with a standard dose-response curve using the Hill equation: […]
The Hill Slope was set to −1. Curves were fitted using a non-linear least square fit with the Levenberg-Marquardt algorithm (Levenberg, K., A method for the solution of certain non-linear problems in least squares, Q. Appl. Math. 2, 164-168 (1944)).

[3] = target: JAK2 kinase domain (JH1) (Homo sapiens (Human), UniProt O60674); assay: JAK2 Radioactive Kinase Assay; format: biochemical; settings: compound at 10 μM; ATP at 10 μM; substrate poly[Glu:Tyr](4:1)
Description: as §1, §2

Sequence of human TYK2 (JH2domain-pseudokinase) (P29597 556-888): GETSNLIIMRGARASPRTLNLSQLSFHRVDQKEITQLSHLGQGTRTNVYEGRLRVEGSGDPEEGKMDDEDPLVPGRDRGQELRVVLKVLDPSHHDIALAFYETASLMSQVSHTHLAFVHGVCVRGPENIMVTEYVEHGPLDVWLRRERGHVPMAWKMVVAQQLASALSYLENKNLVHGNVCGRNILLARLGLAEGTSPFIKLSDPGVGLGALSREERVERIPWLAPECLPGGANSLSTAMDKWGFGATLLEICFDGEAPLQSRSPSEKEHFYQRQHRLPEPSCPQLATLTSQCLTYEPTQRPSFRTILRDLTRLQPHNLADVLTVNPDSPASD
Sequence of JAK2 kinase domain (JH1) (O60674 849-1124): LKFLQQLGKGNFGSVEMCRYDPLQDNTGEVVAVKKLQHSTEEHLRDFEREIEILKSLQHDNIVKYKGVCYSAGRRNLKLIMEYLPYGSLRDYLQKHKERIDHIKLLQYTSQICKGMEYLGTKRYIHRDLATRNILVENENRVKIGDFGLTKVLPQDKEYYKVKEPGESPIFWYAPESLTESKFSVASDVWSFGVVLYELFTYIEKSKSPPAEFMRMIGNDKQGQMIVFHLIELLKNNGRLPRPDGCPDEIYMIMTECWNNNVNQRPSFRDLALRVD
Sequence of TYK2 kinase domain (JH1) (P29597 897-1176): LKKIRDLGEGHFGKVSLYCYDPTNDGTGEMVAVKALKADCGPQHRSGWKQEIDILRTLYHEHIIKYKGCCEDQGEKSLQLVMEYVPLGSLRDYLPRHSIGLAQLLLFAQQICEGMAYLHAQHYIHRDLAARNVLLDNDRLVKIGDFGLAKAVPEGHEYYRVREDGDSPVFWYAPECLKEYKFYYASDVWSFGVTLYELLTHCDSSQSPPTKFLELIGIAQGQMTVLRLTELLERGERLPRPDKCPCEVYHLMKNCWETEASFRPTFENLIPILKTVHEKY

Row | inhibition at 10 µM [1] | Kd [2] | inhibition at 10 µM [3] | Compound
1 | < 50% | 0.2 to 1 nM | < 50% | CNC(=O)c1cnc(NC(=O)C2CC2)c2[nH]c(-c3ccc(C4=NC(C)(C)CO4)cc3OC)cc12 [Compound I-9, 7-(cyclopropanecarboxamido)-2-(4-(4,4-dimethyl-4,5-dihydrooxazol-2-yl)-2-methoxyphenyl)-N-methyl-1H-pyrrolo[2,3-c]pyridine-4-carboxamide]
2 | < 50% | 0.2 to 1 nM | < 50% | CNC(=O)c1cnc(NC(=O)C2CC2)c2[nH]c(-c3ccc4cn(C5CC5)nc4c3)cc12 [Compound I-20, 7-(cyclopropanecarboxamido)-2-(2-cyclopropyl-2H-indazol-6-yl)-N-methyl-1H-pyrrolo[2,3-c]pyridine-4-carboxamide]
3 | < 50% | 0.2 to 1 nM | < 50% | [2H]C([2H])([2H])NC(=O)c1cnc(NC(=O)C2CC2)c2[nH]c(-c3cccc(-c4ncn(C)n4)n3)cc12 [Compound I-35, 7-(cyclopropanecarboxamido)-N-(methyl-d3)-2-(6-(1-methyl-1H-1,2,4-triazol-3-yl)pyridin-2-yl)-1H-pyrrolo[2,3-c]pyridine-4-carboxamide]
4 | < 50% | 1 to 10 nM | < 50% | CNC(=O)c1cnc(NC(=O)C2CC2)c2[nH]c(-c3cc(-c4nccs4)cnc3OC3CC3)cc12 [Compound I-39, 7-(cyclopropanecarboxamido)-2-(2-cyclopropoxy-5-(thiazol-2-yl)pyridin-3-yl)-N-methyl-1H-pyrrolo[2,3-c]pyridine-4-carboxamide]
5 | < 50% | 0.2 to 1 nM | < 50% | CNC(=O)c1cnc(NC(=O)C2CC2)c2[nH]c(-c3cccc(C4=NC(C)(C)CS4)c3)cc12 [Compound I-11, 7-(cyclopropanecarboxamido)-2-(3-(4,4-dimethyl-4,5-dihydrothiazol-2-yl)phenyl)-N-methyl-1H-pyrrolo[2,3-c]pyridine-4-carboxamide]
6 | < 50% | 1 to 10 nM | < 50% | CCOc1ncc(-c2ccn(C)n2)cc1-c1cc2c(C(=O)NC)cnc(NC(=O)C3CC3)c2[nH]1 [Compound I-37, 7-(cyclopropanecarboxamido)-2-(2-ethoxy-5-(1-methyl-1H-pyrazol-3-yl)pyridin-3-yl)-N-methyl-1H-pyrrolo[2,3-c]pyridine-4-carboxamide]
7 | < 50% | < 0.2 nM | < 50% | CNC(=O)c1cnc(NC(=O)C2CC2)c2[nH]c(-c3cc(-c4ncn(C)n4)ccn3)cc12 [Compound I-13, 7-(cyclopropanecarboxamido)-N-methyl-2-(4-(1-methyl-1H-1,2,4-triazol-3-yl)pyridin-2-yl)-1H-pyrrolo[2,3-c]pyridine-4-carboxamide]
8 | < 50% | 0.2 to 1 nM | < 50% | CNC(=O)c1cnc(NC(=O)C2CC2)c2[nH]c(-c3cccc(-n4ccc(C)n4)c3)cc12 [Compound I-7, 7-(cyclopropanecarboxamido)-N-methyl-2-(3-(3-methyl-1H-pyrazol-1-yl)phenyl)-1H-pyrrolo[2,3-c]pyridine-4-carboxamide]
9 | – | < 0.2 nM | – | CNC(=O)c1cnc(NC(=O)C2CC2)c2[nH]c(-c3cccc(-c4nc(C)n(C)n4)c3F)cc12 [Compound I-73, 7-(cyclopropanecarboxamido)-2-(3-(1,5-dimethyl-1H-1,2,4-triazol-3-yl)-2-fluorophenyl)-N-methyl-1H-pyrrolo[2,3-c]pyridine-4-carboxamide]
10 | – | > 10 nM | – | CNC(=O)c1cnc(NC(=O)C2CC2)c2[nH]c(-c3c(F)cc(-n4nccn4)cc3OC3CC3)cc12 [Compound I-82, 7-(cyclopropanecarboxamido)-2-(2-cyclopropoxy-6-fluoro-4-(2H-1,2,3-triazol-2-yl)phenyl)-N-methyl-1H-pyrrolo[2,3-c]pyridine-4-carboxamide]
11 | – | > 10 nM | – | CNC(=O)c1cnc(NC(=O)C2CC2)c2[nH]c(-c3ccc(-c4cn(C)nn4)cc3OC)cc12 [Compound I-64, 7-(cyclopropanecarboxamido)-2-(2-methoxy-4-(1-methyl-1H-1,2,3-triazol-4-yl)phenyl)-N-methyl-1H-pyrrolo[2,3-c]pyridine-4-carboxamide]
12 | – | < 0.2 nM | – | CNC(=O)c1cnc(NC(=O)C2CC2)c2[nH]c(-c3ccc(-c4nc(C)c(C)n4C)cc3F)cc12 [Compound I-74, 7-(cyclopropanecarboxamido)-2-(2-fluoro-4-(1,4,5-trimethyl-1H-imidazol-2-yl)phenyl)-N-methyl-1H-pyrrolo[2,3-c]pyridine-4-carboxamide]
13 | – | 1 to 10 nM | – | CNC(=O)c1cnc(NC(=O)C2CC2)c2[nH]c(-c3cccc(N4CCC4)c3C#N)cc12 [Compound I-41, 2-(3-(azetidin-1-yl)-2-cyanophenyl)-7-(cyclopropanecarboxamido)-N-methyl-1H-pyrrolo[2,3-c]pyridine-4-carboxamide]
14 | – | < 0.2 nM | – | CNC(=O)c1cnc(NC(=O)C2CC2)c2[nH]c(-c3cccc(-c4cn5c(n4)COCC5)c3F)cc12 [Compound I-79, 7-(cyclopropanecarboxamido)-2-(3-(5,6-dihydro-8H-imidazo[2,1-c][1,4]oxazin-2-yl)-2-fluorophenyl)-N-methyl-1H-pyrrolo[2,3-c]pyridine-4-carboxamide]
15 | – | < 0.2 nM | – | CNC(=O)c1cnc(NC(=O)C2CC2)c2[nH]c(-c3ccc(C(=O)N4CC(F)(F)C4)cc3F)cc12 [Compound I-98, 7-(cyclopropanecarboxamido)-2-(4-(3,3-difluoroazetidine-1-carbonyl)-2-fluorophenyl)-N-methyl-1H-pyrrolo[2,3-c]pyridine-4-carboxamide]
16 | – | 0.2 to 1 nM | – | CNC(=O)c1cnc(NC(=O)C2CC2)c2[nH]c(-c3ccc(-c4ccn(C)n4)cc3F)cc12 [Compound I-101]
17 | – | < 0.2 nM | – | CNC(=O)c1cnc(NC(=O)C2CC2)c2[nH]c(-c3cccc(-c4nc(C)cn4C)n3)cc12 [Compound I-49, 7-(cyclopropanecarboxamido)-2-(6-(1,4-dimethyl-1H-imidazol-2-yl)pyridin-2-yl)-N-methyl-1H-pyrrolo[2,3-c]pyridine-4-carboxamide]
18 | – | < 0.2 nM | – | CNC(=O)c1cnc(NC(=O)C2CC2)c2[nH]c(-c3c(F)cc(-c4nccn4C)cc3N3CCOCC3)cc12 [Compound I-86, 7-(cyclopropanecarboxamido)-2-(2-fluoro-4-(1-methyl-1H-imidazol-2-yl)-6-morpholinophenyl)-N-methyl-1H-pyrrolo[2,3-c]pyridine-4-carboxamide]
19 | – | < 0.2 nM | – | CNC(=O)c1cnc(NC(=O)C2CC2)c2[nH]c(-c3cnccc3OC3CC3)cc12 [Compound I-44, 7-(cyclopropanecarboxamido)-2-(4-cyclopropoxypyridin-3-yl)-N-methyl-1H-pyrrolo[2,3-c]pyridine-4-carboxamide]
